Data reported in patent publication US8188284B2, “2-aminoquinolines” (Hoffman-La Roche Inc., priority 2008, dated 2012).
Read-outs that look alike come from different tables or passages of the source.

Target: T1, recombinant human 5-HT5A receptor (Homo sapiens, UniProt P47898)
T1 construct: expressed in transfected cells; host or cells: HEK-EBNA (Human Embryonic Kidney-EBNA) cells, transient cDNA expression, membranes
Assay: [3H]LSD radioligand binding assay
Method: A [^3H]LSD radioligand binding assay was used to determine the affinity of the compounds for the recombinant human 5-HT5A receptor, in membranes from transiently (cDNA) expressed 5-HT5A receptors in Human Embryonic Kidney-EBNA (HEK-EBNA) cells. Assay buffer consisted of Tris (50 mM) buffer containing 1 mM EGTA, 10 mM MgCl2 (pH 7.4) and 10 μM pargyline. The binding assay was carried out in 96-well-plates in the presence of [^3H]LSD (approximately 1 nM), approximately 2 μg/well of membrane protein, and 0.5 mg of Ysi-poly-1-lysine SPA beads in a final volume of 200 μl of buffer. Non-specific binding was defined using methiothepin 2 μM. Compounds were tested at 10 concentrations. All assays were conducted in duplicate and repeated at least two times. Assay plates were incubated for 120 min at room temperature before centrifugation. Bound ligand was determined using a Packard Topcount scintillation counter. IC50 values were calculated using a non-linear curve fitting program and Ki values calculated using the Cheng-Prussoff equation.

[1] = [3H]LSD (approximately 1 nM), membranes from HEK-EBNA cells transiently expressing 5-HT5A receptors, Ki calculated from IC50 using the Cheng-Prussoff equation, read-out: Ki/nM 5-HT5A

T1 sequence (P47898 whole entry): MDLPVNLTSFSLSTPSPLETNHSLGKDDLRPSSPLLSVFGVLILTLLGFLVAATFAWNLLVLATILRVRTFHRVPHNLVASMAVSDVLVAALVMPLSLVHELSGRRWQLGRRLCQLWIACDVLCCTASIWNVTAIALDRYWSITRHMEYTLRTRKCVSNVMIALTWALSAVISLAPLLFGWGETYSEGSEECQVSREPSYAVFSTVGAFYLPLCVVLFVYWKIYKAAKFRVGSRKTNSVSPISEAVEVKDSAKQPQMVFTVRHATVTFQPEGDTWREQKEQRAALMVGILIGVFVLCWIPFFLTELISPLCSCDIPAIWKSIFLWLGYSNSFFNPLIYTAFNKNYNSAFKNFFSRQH

Compound | Ki [1] | Ki
O=C(Nc1ccc(F)cc1)Nc1ccc2nc(N[C@@H]3CCc4ccccc43)ccc2c1 [Example 19, 1-(4-Fluoro-phenyl)-3-[2-((R)-indan-1-ylamino)-quinolin-6-yl]-urea] | 6.5 nM | 
O=S(=O)(Nc1ccc2nc(N[C@@H]3CCc4ccccc43)ccc2c1)c1ccc(F)cc1 [Example 14, 4-Fluoro-N-[2-((R)-indan-1-ylamino)-quinolin-6-yl]-benzenesulfonamide] | 36.4 nM | 
FC(F)(F)c1cccc(Nc2ccc3nc(N[C@@H]4CCc5ccccc54)ccc3c2)n1 [Example 80, N^2—(R)-Indan-1-yl-N^6-(6-trifluoromethyl-pyridin-2-yl)-quinoline-2,6-diamine] | 24.1 nM | 
c1ccc2c(c1)CC[C@H]2Nc1ccc2cc(NCc3nccs3)ccc2n1 [Example 13, N^2—(R)-Indan-1-yl-N^6-thiazol-2-ylmethyl-quinoline-2,6-diamine] | 7.6 nM | 
Fc1ccc(CNCc2ccc3nc(N[C@@H]4CCc5ccccc54)ccc3c2)cc1 [Example 64, {6-[(4-Fluoro-benzylamino)-methyl]-quinolin-2-yl}-(R)-indan-1-yl-amine] | 348 nM | 
c1ccc2c(c1)CC[C@H]2Nc1ccc2cc(NCc3ncc[nH]3)ccc2n1 [Example 12, N^6-(1H-Imidazol-2-ylmethyl)-N^2—(R)-indan-1-yl-quinoline-2,6-diamine] | 16.6 nM | 
COc1cccc2c1C(Nc1ccc3cc(NC(=O)Cn4ccnc4)ccc3n1)CC2 (racemic) [Example 100, rac-2-Imidazol-1-yl-N-[2-(7-methoxy-indan-1-ylamino)-quinolin-6-yl]-acetamide] | 21.2 nM | 
c1ccc2c(c1)CC[C@H]2Nc1ccc2cc(NCc3cc[nH]n3)ccc2n1 [Example 18, N^2—(R)-Indan-1-yl-N^6-(1-H-pyrazol-3-ylmethyl)-quinoline-2,6-diamine] | 9 nM | 
CN(c1ccc2nc(N[C@@H]3CCc4ccccc43)ccc2c1)c1ccccn1 [Example 85, N^2—(R)-Indan-1-yl-N^6-methyl-N^6-pyridin-2-yl-quinoline-2,6-diamine] | 225 nM | 
O=C(Nc1cccc(F)c1)Nc1ccc2nc(N[C@@H]3CCc4ccccc43)ccc2c1 [Example 20, 1-(3-Fluoro-phenyl)-3-[2-((R)-indan-1-ylamino)-quinolin-6-yl]-urea] | 7.8 nM | 
C[C@H](NC(=O)Nc1ccc2nc(N[C@@H]3CCc4ccccc43)ccc2c1)c1ccccc1 [Example 28, 1-[2-((R)-Indan-1-ylamino)-quinolin-6-yl]-3-((S)-1-phenyl-ethyl)-urea] | 36.7 nM | 
O=C(Nc1ccc2nc(N[C@@H]3CCc4ccccc43)ccc2c1)Nc1ccccc1F [Example 25, 1-(2-Fluoro-phenyl)-3-[2-((R)-indan-1-ylamino)-quinolin-6-yl]-urea] | 4.2 nM | 
Fc1ccc2c(c1)CCC2Nc1ccc2cc(Nc3cccc(C(F)(F)F)n3)ccc2n1 (racemic) [Example 102, rac-N^2-(5-Fluoro-indan-1-yl)-N^6-(6-trifluoromethyl-pyridin-2-yl)-quinoline-2,6-diamine] | 19.1 nM | 
COc1ccc(OC(=O)Nc2ccc3nc(N[C@@H]4CCc5ccccc54)ccc3c2)cc1 [Example 47, [2-((R)-Indan-1-ylamino)-quinolin-6-yl]-carbamic acid 4-methoxy-phenyl ester] |  | 20 nM
c1ccc2c(c1)CC[C@H]2Nc1ccc2cc(-n3ccnc3)ccc2n1 [Example 61, (6-Imidazol-1-yl-quinolin-2-yl)-(R)-indan-1-yl-amine] | 422 nM | 
c1cncc(CNc2ccc3nc(N[C@@H]4CCc5ccccc54)ccc3c2)c1 [Example 4, N^2—(R)-Indan-1-yl-N^6-pyridin-3-ylmethyl-quinoline-2,6-diamine] | 9.8 nM | 

Further compounds by falling Ki [1], results first:

Ki [1] | Compound | Ki
390 nM | O=C(NC(=S)Nc1ccc2nc(N[C@@H]3CCc4ccccc43)ccc2c1)c1ccccc1 [Example 63, 1-Benzoyl-3-[2-((R)-indan-1-ylamino)-quinolin-6-yl]-thiourea] | 
176 nM | c1ccc2c(c1)CC[C@H]2Nc1ccc2cc(NCCCn3ccnc3)ccc2n1 [Example 9, N^6-(3-Imidazol-1-yl-propyl)-N^2—(R)-indan-1-yl-quinoline-2,6-diamine] | 
141 nM | O=C(NCc1ccc2nc(N[C@@H]3CCc4ccccc43)ccc2c1)c1ccc(F)cc1 [Example 54, 4-Fluoro-N-[2-((R)-indan-1-ylamino)-quinolin-6-ylmethyl]-benzamide] | 
92.4 nM | COc1cccc(COc2ccc3nc(N[C@@H]4CCc5ccccc54)ccc3c2)c1 [Example 2, (R)-Indan-1-yl-[6-(3-methoxy-benzyloxy)-quinolin-2-yl]-amine] | 
72.5 nM | O=C(Nc1ccc2nc(N[C@@H]3CCc4ccccc43)ccc2c1)c1ccc(F)cc1 [Example 50, 4-Fluoro-N-[2-((R)-indan-1-ylamino)-quinolin-6-yl]-benzamide] | 
33.7 nM | c1ccc2c(c1)CC[C@H]2Nc1ccc2cc(NCc3ccncc3)ccc2n1 [Example 15, N^2—(R)-Indan-1-yl-N^6-pyridin-4-ylmethyl-quinoline-2,6-diamine] | 
29.6 nM | CN(c1ccc(Cl)cc1)S(=O)(=O)Nc1ccc2nc(N[C@@H]3CCc4ccccc43)ccc2c1 [Example 40, N-(4-chlorophenyl)-N′-{2-[(1R)-2,3-dihydro-1H-inden-1-ylamino]quinolin-6-yl}-N-methylsulfamide] | 
25.8 nM | Cc1noc(C)c1NC(=O)Nc1ccc2nc(N[C@@H]3CCc4ccccc43)ccc2c1 [Example 42, 1-(3,5-Dimethyl-isoxazol-4-yl)-3-[2-((R)-indan-1-ylamino)-quinolin-6-yl]-urea] | 
25.6 nM | COc1ccccc1NC(=O)Nc1ccc2nc(N[C@@H]3CCc4ccccc43)ccc2c1 [Example 23, 1-[2-((R)-Indan-1-ylamino)-quinolin-6-yl]-3-(2-methoxy-phenyl)-urea] | 
21.9 nM | COc1cccc(NC(=O)Nc2ccc3nc(N[C@@H]4CCc5ccccc54)ccc3c2)c1 [Example 22, 1-[2-((R)-Indan-1-ylamino)-quinolin-6-yl]-3-(3-methoxy-phenyl)-urea] | 
20.3 nM | Cn1nccc1NC(=O)Nc1ccc2nc(N[C@@H]3CCc4ccccc43)ccc2c1 [Example 58, 1-[2-((R)-Indan-1-ylamino)-quinolin-6-yl]-3-(2-methyl-2H-pyrazol-3-yl)-urea] | 
18.2 nM | O=C(Nc1ccnc(Cl)c1)Nc1ccc2nc(N[C@@H]3CCc4ccccc43)ccc2c1 [Example 33, 1-(2-Chloro-pyridin-4-yl)-3-[2-((R)-indan-1-ylamino)-quinolin-6-yl]-urea] | 
16.5 nM | COc1ccc(CNC(=O)Nc2ccc3nc(N[C@@H]4CCc5ccccc54)ccc3c2)cc1 [Example 29, 1-[2-((R)-Indan-1-ylamino)-quinolin-6-yl]-3-(4-methoxy-benzyl)-urea] | 
16.4 nM | O=C(Nc1ccc(Cl)nc1)Nc1ccc2nc(N[C@@H]3CCc4ccccc43)ccc2c1 [Example 31, 1-(6-Chloro-pyridin-3-yl)-3-[2-((R)-indan-1-ylamino)-quinolin-6-yl]-urea] | 
15 nM | COc1cccc2c1C(Nc1ccc3cc(NC(=O)Cc4ccncc4)ccc3n1)CC2 (racemic) [Example 115, rac-N-[2-(7-Methoxy-indan-1-ylamino)-quinolin-6-yl]-2-pyridin-4-yl-acetamide] | 
10.6 nM | Cn1cncc1CNC(=O)Nc1ccc2nc(N[C@@H]3CCc4ccccc43)ccc2c1 [Example 45, 1-[2-((R)-Indan-1-ylamino)-quinolin-6-yl]-3-(3-methyl-3H-imidazol-4-ylmethyl)-urea] | 
9.8 nM | C[C@@H](NC(=O)Nc1ccc2nc(N[C@@H]3CCc4ccccc43)ccc2c1)c1ccccc1 [Example 27, 1-[2-((R)-Indan-1-ylamino)-quinolin-6-yl]-3-((R)-1-phenyl-ethyl)-urea] | 
9.4 nM | c1ccc2c(c1)CC[C@H]2Nc1ccc2cc(NCc3cccc4[nH]ccc34)ccc2n1 [Example 11, N^2—(R)-Indan-1-yl-N^6-(1-H-indol-4-ylmethyl)-quinoline-2,6-diamine] | 
8 nM | COc1cccc2c1C(Nc1ccc3cc(Nc4cccc(C)n4)ccc3n1)CO2 (racemic) [Example 112, rac-N^2-(4-Methoxy-2,3-dihydro-benzofuran-3-yl)-N^6-(6-methyl-pyridin-2-yl)-quinoline-2,6-diamine] | 
7.6 nM | Cc1nc[nH]c1CNc1ccc2nc(N[C@@H]3CCc4ccccc43)ccc2c1 [Example 17, N^2—(R)-Indan-1-yl-N^6-(5-methyl-3-H-imidazol-4-ylmethyl)-quinoline-2,6-diamine] | 
6.8 nM | Cc1cccc(Nc2ccc3nc(NC4CCc5cc(F)ccc54)ccc3c2)n1 (racemic) [Example 105, rac-N^2-(5-Fluoro-indan-1-yl)-N^6-(6-methyl-pyridin-2-yl)-quinoline-2,6-diamine] | 
6.3 nM | COc1ccc(NC(=O)Nc2ccc3nc(N[C@@H]4CCc5ccccc54)ccc3c2)cc1 [Example 21, 1-[2-((R)-Indan-1-ylamino)-quinolin-6-yl]-3-(4-methoxy-phenyl)-urea] | 
4.9 nM | O=C(Nc1ccccc1)Nc1ccc2nc(N[C@@H]3CCc4ccccc43)ccc2c1 [Example 16, 1-[2-((R)-Indan-1-ylamino)-quinolin-6-yl]-3-phenyl-urea] | 
3.4 nM | COc1cccc2c1C(Nc1ccc3cc(Nc4cccc(C)n4)ccc3n1)CC2 (racemic) [Example 94, rac-N^2-(7-Methoxy-indan-1-yl)-N^6-(6-methyl-pyridin-2-yl)-quinoline-2,6-diamine] | 
